According to ChEMBL document CHEMBL1121749, “Beta-adrenergic blocking agents. 21. threo-1-(Aryloxy)-3-(alkylamino)butan-2-ols” (J Med Chem, 1981):
Calls of active or inactive are those of the source. No cut-off for these calls is given here.

Molecular target: Adrenergic receptor beta (Homo sapiens) (UniProt P08588+P07550+P13945)
Assay: Beta adrenoceptor blocking potency by inhibition of 50% of the tachycardia produced by a submaximal dose of the isoproterenol (0.2ug/kg, intravenously).
Type: functional
Settings: Felis catus

SMILES	DOSE
CCC(=O)Nc1ccc(OCC(O)C(C)NC(C)(C)C)cc1 (centres undefined)	inactive
CC(=O)Nc1ccc(OCC(O)C(C)NC(C)C)cc1 (centres undefined)	inactive
CC(C)NC(C)C(O)COc1ccc(CC(N)=O)cc1 (centres undefined)	inactive
Cc1csc2cccc(OCC(O)C(C)NC(C)(C)C)c12 (centres undefined)	inactive
CC(NC(C)(C)C)C(O)COc1ccccc1C#N (centres undefined)	inactive
CC(C)CNC(=O)c1ccc(OCC(O)C(C)NC(C)C)c(Cl)c1 (centres undefined)	inactive
CC(C)NC(C)C(O)COc1ccc(Cl)c(Cl)c1 (centres undefined)	inactive
C=CCc1cc(CC(N)=O)ccc1OCC(O)C(C)NC(C)(C)C (centres undefined)	inactive
CCNC(C)C(O)COc1ccc(NC(C)=O)cc1 (centres undefined)	inactive
CC(NC(C)(C)C)C(O)COc1cccc2sccc12 (centres undefined)	inactive
CCC(=O)Nc1ccc(OCC(O)C(C)NC(C)(C)C)c([N+](=O)[O-])c1 (centres undefined)	inactive
CC(NC(C)(C)C)C(O)COc1ccccc1/C=C/C#N (centres undefined)	inactive
CC(=O)Nc1ccc(OCC(O)C(C)NC(C)(C)CO)cc1 (centres undefined)	inactive
Cc1ccc(OCC(O)C(C)NC(C)C)cc1 (centres undefined)	inactive
CC(NC(C)(C)C)C(O)COc1ccc(CC(N)=O)cc1F (centres undefined)	inactive
CC(=O)Nc1ccc(OCC(O)C(C)N)cc1 (centres undefined)	inactive
CC(=O)Nc1ccc(OCC(O)C(C)NC(C)(C)C)cc1 (centres undefined)	inactive
CC(NC(C)(C)C)C(O)COc1ccc(CC(N)=O)cc1 (centres undefined)	inactive
CCNC(C)C(O)COc1ccc(CC(N)=O)cc1 (centres undefined)	inactive

Results, then the compound that gave them:

DOSE	SMILES
inactive	CC(C)CNC(C)C(O)COc1cccc2ccccc12 (centres undefined)
inactive	CCC(=O)Nc1cccc2c(OCC(O)C(C)NC(C)C)cccc12 (centres undefined)
inactive	CC(C)NC(C)C(O)COc1ccccc1-c1nc2ccccc2s1 (centres undefined)
inactive	CCC(=O)Nc1cccc2c(OCC(O)C(C)NC(C)(C)C)cccc12 (centres undefined)
inactive	CC(C)NC(C)C(O)COc1ccc(OCc2ccccc2)cc1 (centres undefined)
inactive	COc1ccc(CCNC(C)C(O)COc2cccc3ccccc23)cc1OC (centres undefined)
inactive	CC(C)NC(C)C(O)COc1ccc2ccccc2c1 (centres undefined)
inactive	CCOc1cc(CNC(=O)CC)ccc1OCC(O)C(C)NC(C)C (centres undefined)
inactive	CC(NC(C)(C)C)C(O)COc1cccc2ccccc12 (centres undefined)
inactive	COc1ccc(CCNC(C)C(O)COc2ccc(CC(N)=O)cc2)cc1OC (centres undefined)
